Experimental data reported in patent US10689377B2 (Mirati Therapeutics, Inc., priority 2017, dated 2020).

What follows are molecules tested against KRas G12C (Homo sapiens, UniProt P01116, G12C) (assay: Cellular inhibition of KRas G12C measured by Phospho-ERK in NCI-H358 cells). Conditions: pERK(Thr202/Tyr204) normalized with GAPDH, NCI-H358 cells, 3 hours; read-out: IC50.
Sequence of KRas G12C (P01116 1-188 isoform P01116-2 G12C): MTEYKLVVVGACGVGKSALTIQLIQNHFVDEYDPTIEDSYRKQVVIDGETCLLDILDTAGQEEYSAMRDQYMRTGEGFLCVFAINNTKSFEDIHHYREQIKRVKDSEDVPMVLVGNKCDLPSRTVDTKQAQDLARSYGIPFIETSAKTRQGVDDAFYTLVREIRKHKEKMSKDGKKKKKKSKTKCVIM
Format: cell-based
Outline: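 Following 8-12 h attachment, NCI-H358 cells got serially diluted compound (0.5% DMSO) for 3 hours. Cells were then fixed, permeabilized with cold methanol, and stained for pERK(Thr202/Tyr204) and GAPDH. Ratios were converted to percent of DMSO control, with IC50 obtained by four-parameter regression.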
Work on CN(C)C/C=C/C(=O)N1CCN(c2nc(OC[C@@H]3CCCN3C)nc3c2CCN(c2cccc(Cl)c2C(F)(F)F)C3)C[C@@H]1CC#N [Example 427] yielded an IC50 of 0.1 to 1000 nM.
C=CC(=O)N1CCN(c2nc(OC[C@@H]3CCCN3C)nc3c2CCN(c2cccc(Cl)c2C(F)(F)F)C3)C[C@@H]1CC#N [Example 428, 2-((S)-1-acryloyl-4-(7-(3-chloro-2-(trifluoromethyl)phenyl)-2-(((S)-1-methylpyrrolidin-2-yl)methoxy)-5,6,7,8-tetrahydropyrido[3,4-d]pyrimidin-4-yl)piperazin-2-yl)acetonitrile] was tested, and the IC50 was 0.1 to 1000 nM.
For C=CC(=O)N1CCN(c2nc(OC[C@@H]3CCCN3C)nc3c2CCN(c2cccc4ccccc24)C3)CC1COC (stereo partly drawn) [Example 429, 1-(2-(methoxymethyl)-4-(2-(((S)-1-methylpyrrolidin-2-yl)methoxy)-7-(naphthalen-1-yl)-5,6,7,8-tetrahydropyrido[3,4-d]pyrimidin-4-yl)piperazin-1-yl)prop-2-en-1-one], the IC50 was > 1000 nM.
Molecule C=CC(=O)N1CCN(c2nc(OC[C@@H]3CCCN3C)nc3c2CCN(c2cccc4ccncc24)C3)C[C@@H]1CC#N [Example 430] has an IC50 of 0.1 to 1000 nM.
C=CC(=O)N1CCN(c2nc(OC[C@@H]3CCCN3C)nc3c2CCN(c2nncc4ccccc24)C3)C[C@@H]1CC#N [Example 431, 2-((S)-1-acryloyl-4-(2-(((S)-1-methylpyrrolidin-2-yl)methoxy)-7-(phthalazin-1-yl)-5,6,7,8-tetrahydropyrido[3,4-d]pyrimidin-4-yl)piperazin-2-yl)acetonitrile] was tested, and the IC50 was > 1000 nM.
For C=CC(=O)N1CCN(c2nc(OC[C@H]3CCCCN3C)nc3c2CCN(c2cccc4ccccc24)C3)C[C@@H]1CC#N [Example 432, 2-((S)-1-acryloyl-4-(2-(((R)-1-methylpiperidin-2-yl)methoxy)-7-(naphthalen-1-yl)-5,6,7,8-tetrahydropyrido[3,4-d]pyrimidin-4-yl)piperazin-2-yl)acetonitrile], the IC50 was 0.1 to 1000 nM.
C=CC(=O)N1CCN(c2nc(OC[C@@H]3CCCN3C)nc3c2CCN(c2cccc4ccccc24)C3)C[C@@H]1CCOC [Example 433, 1-((S)-2-(2-methoxyethyl)-4-(2-(((S)-1-methylpyrrolidin-2-yl)methoxy)-7-(naphthalen-1-yl)-5,6,7,8-tetrahydropyrido[3,4-d]pyrimidin-4-yl)piperazin-1-yl)prop-2-en-1-one] was tested, and the IC50 was > 1000 nM.
With C=CC(=O)N1CCN(c2nc(OC[C@@H]3CCCN3C)nc3c2CCN(c2cccc4cccc(C(F)(F)F)c24)C3)C[C@@H]1CC#N [Example 434, 2-((S)-1-acryloyl-4-(2-(((S)-1-methylpyrrolidin-2-yl)methoxy)-7-(8-(trifluoromethyl)naphthalen-1-yl)-5,6,7,8-tetrahydropyrido[3,4-d]pyrimidin-4-yl)piperazin-2-yl)acetonitrile] the IC50 was 0.1 to 1000 nM.
For C=CC(=O)N1CCN(c2nc(OC[C@@H]3CCCN3C)nc3c2CCN(c2cccc4ccn(C)c24)C3)C[C@@H]1CC#N [Example 436, 2-((S)-1-acryloyl-4-(7-(1-methyl-1H-indol-7-yl)-2-(((S)-1-methylpyrrolidin-2-yl)methoxy)-5,6,7,8-tetrahydropyrido[3,4-d]pyrimidin-4-yl)piperazin-2-yl)acetonitrile], the IC50 was 0.1 to 1000 nM.
For C=CC(=O)N1CCN(c2nc(OC[C@@H]3C[C@@H](F)CN3C)nc3c2CCN(c2cccc(C)c2C)C3)C[C@@H]1CC#N [Example 437, 2-((S)-1-acryloyl-4-(7-(2,3-dimethylphenyl)-2-(((2S,4R)-4-fluoro-1-methylpyrrolidin-2-yl)methoxy)-5,6,7,8-tetrahydropyrido[3,4-d]pyrimidin-4-yl)piperazin-2-yl)acetonitrile], the IC50 was 0.1 to 1000 nM.
Cc1cccc(N2CCc3c(nc(OC[C@@H]4C[C@@H](F)CN4C)nc3N3CCN(C(=O)/C=C/CN(C)C)[C@@H](CC#N)C3)C2)c1C [Example 438, 2-((S)-1-((E)-4-(dimethylamino)but-2-enoyl)-4-(7-(2,3-dimethylphenyl)-2-(((2S,4R)-4-fluoro-1-methylpyrrolidin-2-yl)methoxy)-5,6,7,8-tetrahydropyrido[3,4-d]pyrimidin-4-yl)piperazin-2-yl)acetonitrile] gave an IC50 of 0.1 to 1000 nM.
